# Experimental data published in US6616940B2, “Process for decreasing adiposity using Vitamin A as a dietary supplement” (The Procter & Gamble Company, priority 1998, dated 2003).
# Tests used:
# [1] = system: β3-adrenergic receptor mRNA; experiment: β3-adrenergic receptor mRNA levels in PWAT and BAT; assay type: in vivo, rats; details: for β3AR mRNA levels, BAT / β3AR mRNA levels, PWAT: CGP-12177 0.75 mg/kg i.p., 4 h, mean ± SE
# Experimental: (§1) Rats were fed a diet containing either, 8,643 IU retinol/kg diet (normal diet) or 430,431 IU retinol/kg diet (vitamin A supplemented diet) for a period of 8 weeks. Food and water were provided ad libitum. Body weights and food intake were recorded weekly. Basal whole body oxygen consumption was measured before starting the diet and then after week 3, 6 and 8 on the diet. At the end of 8 weeks, half the rats from each group were challenged with a single dose of the β3 adrenergic specific agonist, CGP-12177 (prepared in pyrogen-free saline, available from Ciba-Geigy, Summit, N.J.) (0.75 mg/kg, i.p.) or saline. The stimulated whole body oxygen consumption was measured and the animals sacrificed 4 hours after injection.
# (§2) Total cellular RNA was extracted using a modification of the method described in Chomczynski and Sacchi, “Single step method of RNA isolation by acid guanidinium thiocyanate-phenolchloroform extraction”, Analytical Biochemistry 162:156-159 (1987). The integrity of the isolated RNA was verified using 1% agarose gels stained with ethidium bromide. The RNA was quantified by spectrophotometric absorption at 260 nm using multiple dilutions of each sample.
# (§3) For dot-blot analysis, multiple concentrations of RNA were immobilized on nylon membranes using a dot-blot apparatus (Biorad, Richmond, Calif.). The membranes were baked at 80° C. for 2 hrs. The baked membranes were prehybridized using 25 mM potassium phosphate, 750 mM NaCl, 75 mM Na citrate, 5× Denhardt's solution, 50 μg/ml denatured salmon sperm DNA, and 50% formamide. After incubation for 14-16 hrs. at 42° C, the membranes were hybridized with ^32P labeled probes in the prehybridization buffer plus 10% dextran sulfate. After hybridization for 14-16 hr at 42° C., the membranes were washed and exposed to a phosphor imaging screen for 48 hrs. The latent image was scanned using a Phosphor Imager (Molecular Dynamic, Sunnyvale, Calif.) and analyzed by Image Quant Software (Molecular Dynamics). Intensities per μg total cellular RNA were calculated by comparison to internal laboratory standards of WAT or BAT total RNA present on each nylon membrane.
# UCP2 mRNA = UCP2 mRNA levels in PWAT and BAT; assay type: in vivo, rats; details: CGP-12177 0.75 mg/kg i.p., 4 h, mean ± SE
# Experimental: as §1, §2, §3
# β-actin mRNA = β-actin mRNA levels in BAT; assay type: in vivo, rats; details: CGP-12177 0.75 mg/kg i.p., 4 h, mean ± SE
# Experimental: (§4) Rats were fed a diet containing either, 8,643 IU retinol/kg diet (normal diet) or 430,431 IU retinol/kg diet (vitamin A supplemented diet) for a period of 8 weeks. Food and water were provided ad libitum. Body weights and food intake were recorded weekly. Basal whole body oxygen consumption was measured before starting the diet and then after week 3, 6 and 8 on the diet. At the end of 8 weeks, half the rats from each group were challenged with a single dose of the β3 adrenergic specific agonist, CGP-12177 (prepared in pyrogen-free saline, available from Ciba-Geigy, Summit, […].) or saline. The stimulated whole body oxygen consumption was measured and the animals sacrificed 4 hours after injection. Total cellular RNA was extracted using a modification of the method described in Chomczynski and Sacchi, “Single step method of RNA isolation by acid guanidinium thiocyanate-phenolchloroform extraction”, Analytical Biochemistry 162:156-159 (1987). […] The RNA was quantified by spectrophotometric absorption at 260 nm using multiple dilutions of each sample. […] The latent image was scanned using a Phosphor Imager (Molecular Dynamic, Sunnyvale, Calif.) and analyzed by Image Quant Software (Molecular Dynamics). Intensities per μg total cellular RNA were calculated by comparison to internal laboratory standards of WAT or BAT total RNA present on each nylon membrane.
# [2] = Whole body oxygen consumption (basal and CGP-12177-stimulated); assay type: in vivo; details: rats on normal and vitamin A supplemented diets, 0.75 mg/kg i.p., vs saline injected rats
# Experimental: as §1
# O2 consumption was assessed on up to four rats simultaneously with an Oxyscan analyzer (OXS-4; Amniotic Electronics, Columbus, Ohio). All experiments were performed on conscious unanesthetized rats during the light phase of the light-dark cycle. Flow rates were 2 L/min with a 30 second sampling time at 5 minute intervals. The temperature was maintained at 26° C. Results were expressed on a mass-dependent basis (ml/min/kg^0.67). The cumulative increase in the CGP12177-stimulated oxygen consumption was calculated as the average increase over baseline from 30 min to 110 min, post injection.
# leptin mRNA = experiment: Leptin mRNA levels in PWAT (dot-blot); assay type: in vivo, rats; details: CGP-12177 0.75 mg/kg i.p.
# Experimental: as §4
# UCP1 mRNA = UCP1 mRNA levels in BAT (dot-blot); assay type: in vivo; details: rats on both vitamin A supplemented and normal diets, 0.75 mg/kg i.p., 4 h (FIG. 4)
# Experimental: as §4
smiles,measurement,setting,value
CC(C)(C)NCC(O)COc1cccc2[nH]c(=O)[nH]c12 (stereo not shown) [CGP-12177],Down regulation of β3-adrenergic receptor mRNA levels in BAT,"[1]; CGP-12177 for 4 h, rats on vitamin A supplemented and normal diets, vs saline treated",50%
same,"β3AR mRNA levels, BAT",[1]; Normal Diet,50.9 ± 3.3 arbitrary units
same,"β3AR mRNA levels, PWAT",[1]; Normal Diet,105 ± 6.0 arbitrary units
same,"β3AR mRNA levels, BAT",[1]; Vitamin A supplemented diet,59.8 ± 7.9 arbitrary units
same,"β3AR mRNA levels, PWAT",[1]; Vitamin A supplemented diet,112 ± 11 arbitrary units
same,"UCP2 mRNA levels, BAT",UCP2 mRNA; Normal Diet,93.4 ± 12.2 arbitrary units
same,"UCP2 mRNA levels, PWAT","UCP2 mRNA; Normal Diet, 0.75 mg/kg",109 ± 10 arbitrary units
same,"UCP2 mRNA levels, PWAT","UCP2 mRNA; Normal Diet, listed as CGP12177, 0.75 mg/kg",no effect
same,"UCP2 mRNA levels, BAT",UCP2 mRNA; Vitamin A supplemented diet,94 ± 8.9 arbitrary units
same,"UCP2 mRNA levels, PWAT",UCP2 mRNA; Vitamin A supplemented diet,110 ± 10 arbitrary units
same,"β-actin mRNA levels, BAT",β-actin mRNA; Normal Diet,98.6 ± 7.4 arbitrary units
same,"β-actin mRNA levels, BAT",β-actin mRNA; Vitamin A supplemented diet,93.8 ± 8.0 arbitrary units
same,Oxygen consumption upon administration of CGP-12177,[2],rapid and sustained increase
same,Suppression of leptin mRNA levels in PWAT,"leptin mRNA; rats on normal diet, 4 hr (FIG. 2)",27%
same,Effect on leptin mRNA levels in PWAT,"leptin mRNA; rats on vitamin A supplemented diet, 4 hr, vs saline on same diet",no further effect
same,UCP1 mRNA levels in BAT upon administration of CGP-12177,UCP1 mRNA,significant but similar increase
